Results as given in patent EP2386565A2, “Compounds and methods to inhibit or augment an inflammatory response” (Cambridge Enterprise Ltd., priority 1999, dated 2000).
“And” between values parts separate entries of the source, which are not always exact repeats. Equal values may be shown once. “Also recorded” adds a separate entry of the source. Positions of bridges follow the written chain, without caps; N, C: chain ends. Non-standard residues stand in square brackets, D forms with d. Residues, ends and D or L forms follow the SMILES beside them.

Legend:
[1] = system: ovalbumin-induced pulmonary inflammation, IgE, IL-4 and recall responses; experiment: Ovalbumin-induced asthma / hypersensitivity model; format: in vivo, mice; set-up: Total IgE (Serum), individual mice m1-m4 / Total IgE (Serum), Avg.: unit not given here; settings: for ng/ml IgE (4X avg.): serum; for splenocyte recall response to OVA (in words): versus positive controls
Method: A third study assessed the efficacy of daily dosing with CRD-Leu4Ile11Cys13 peptide 3(3-12)[MCP-1] to reduce OVA-induced pulmonary inflammation. Mice were sensitized with 0.1 mg of ovalbumin or PBS (diluent control) intraperitoneally in the absence of the test agent. […] These treatments were given daily from day 8 through day 21. On day 8, thirty minutes following treatment, mice were challenged intratracheally with 1% ovalbumin or PBS. On days 15, 18, and 21, thirty minutes following treatment, mice were challenged intratracheally with 2% ovalbumin or PBS. Mice were sacrificed 3 hours post-ovalbumin challenge, on day 21. Lungs were collected for histopathology, and for isolation of cells for total cell counts and FACS analysis. Bronchalveolar lavage (BAL) was collected for eicosinoid levels. Serum was collected for IgE and IL-4 levels. Spleens were collected for cytokine recall responses. […]

[2] = Stability against acid hydrolysis; format: physicochemical; settings: pH 2.0 for 2 hrs at 37°C
From the text: For example, to prepare a peptide 3 derivative, peptide 3(3-12)[MCP-1] was modified according to Jameson et al. (Nature, 368, 744 (1994)), which yielded CRD-Cys13Leu4Ile11peptide 3(3-12)[MCP-1] (Figure 3).

THP-1 cells = experiment: Agonist activity: agent in the lower compartment of the migration chamber; format: cell-based, human
From the text: Agents with agonist activity may also be identified using the transwell migration assay, where the cells are placed in the upper compartment (see Figure 1) in the absence of agent, and the agent, e.g. peptide 2[MCP-1], is placed at varying concentrations in the lower compartment in place of the chemokine. […] Preferably, agents having agonist activity also stimulate migration of primary human cells, e.g., monocytes, in a transwell migration assay.
To evaluate the agonist activity ofCRD-Leu4Ile11Cys13 peptide 3(3-12)[MCP-1], CRD-Leu4Ile11Cys13 peptide 3(3-12)[MCP-1] was placed in the lower compartment of the migration chamber at various concentrations and 50,000 THP-1 cells were placed in the upper compartment. The number of cells in the lower compartment after 4 hours was then determined using the vital dye MTT. […] At higher concentrations (1 µM and 10 µM), there may be a small stimulation of migration in this experiment, although the magnitude of this migratory response was less than that seen with 3.25 ng/ml recombinant MCP-1. CRD-Leu4Ile11Cys13 peptide 3(3-12)[MCP-1] is unlikely to have any agonist activity that is significant at concentrations attainable in vivo.

[3] = system: SDF-1 induced calcium flux; experiment: Intracellular calcium flux, SDF-1 as agonist; format: cell-based
[4] = Group 5: Ova on days 8, 15, 18, 21, treat BID 14 days, sacrifice day 34 (No recent Ova challenge), 0 µg/ml Ova
[5] = Group 5: PBS on days 8, 15, 18, 21, treat BID 14 days, sacrifice day 34 (No recent Ova challenge), 0 µg/ml Ova

CC[C@@H](C)[C@H]1NC(=O)[C@@H](CCC(N)=O)NC(=O)[C@H](N)CSSC[C@H](C(N)=O)NC(=O)[C@@H](CC(C)C)NC(=O)[C@@H](CC(=O)O)NC(=O)[C@H]2CCCN2C(=O)[C@@H](CCCCN)NC(=O)[C@@H](CCC(N)=O)NC(=O)[C@@H](CCCCN)NC(=O)[C@@H](Cc2c[nH]c3ccccc23)NC1=O (H-[dC][dQ][dI][dW][dK][dQ][dK][dP][dD][dL][dC]-NH2; disulfide 1-11)
IL-4 Assays, pg/ml IL-4, individual mice m1-m4 ([1]; Group 4, 50 µg/ml Ova): 14.38 pg/mL and 22.08 pg/mL and 10.25 pg/mL and 11.09 pg/mL
Total IgE (1 week splenocyte cultures) ([1]; Group 4, 50 µg/ml Ova): 0.082 ng/mL
Total IgE (1 week splenocyte cultures), Avg. ([1]; Group 4, 50 µg/ml Ova): 0.021
Total IgM + IgG (1 week splenocyte cultures), Avg. ([1]; Group 4, 50 µg/ml Ova): 416.86
Total IgE (1 week splenocyte cultures), individual mice m1-m4 ([1]; Group 4, 50 µg/ml Ova, listed as CRD-Leu4Ile11Cys13peptide 3(3-12)[MCP-1]): 0.013 and 0.043 and 0.008 and 0.018
Total IgM + IgG (1 week splenocyte cultures), individual mice m1-m4 ([1]; Group 4, 50 µg/ml Ova, listed as CRD-Leu4Ile11Cys13 peptide 3(3-12)[MCP]): 338.50 and 679.86 and 487.87 and 161.20
ng/ml IgE (4X avg.) ([1]; Group 4): 2.482 ng/mL
Total IgE (Serum), Avg. ([1]; Group 5): 1.102
Total IgE (1 week splenocyte cultures), individual mice m1-m4 ([1]; Group 5 (No recent Ova challenge), 0 µg/ml Ova): 0.008 and 0.033 and 0.000 and 0.024
Total IgE (Serum), individual mice m1-m4 ([1]; Group 5 (treated 14 days, no recent Ova challenge)): 0.625 and 1.870 and 0.838 and 1.073
IL-4 Assays, pg/ml IL-4, Avg. of Group [1, 4]: 8.05 pg/mL
IL-4 Assays, pg/ml IL-4, individual mice m1-m4 [1, 4]: 9.09 pg/mL and 3.80 pg/mL and 12.89 pg/mL and 6.42 pg/mL
Total IgM + IgG (1 week splenocyte cultures), Avg. [1, 5]: 20.05
Total IgM + IgG (1 week splenocyte cultures), individual mice m1-m4 [1, 5]: 26.54 and 15.44 and 21.35 and 16.89
Total IgE (1 week splenocyte cultures) ([1]; Group 5, 0 µg/ml Ova): 0.065 ng/mL
Total IgE (1 week splenocyte cultures), Avg. ([1]; Group 5, 0 µg/ml Ova): 0.016
IL-4 Assays, pg/ml IL-4, Avg. of Group ([1]; Group 5, 5 µg/ml Ova): 6.33 pg/mL
IL-4 Assays, pg/ml IL-4, individual mice m1-m4 ([1]; Group 5, 5 µg/ml Ova): 5.70 pg/mL and 4.43 pg/mL and 10.09 pg/mL and 5.10 pg/mL
Total IgE (1 week splenocyte cultures) ([1]; Group 5, 5 µg/ml Ova): 0.082 ng/mL
Total IgE (1 week splenocyte cultures), Avg. ([1]; Group 5, 5 µg/ml Ova): 0.021
Total IgE (1 week splenocyte cultures), individual mice m1-m4 ([1]; Group 5, 5 µg/ml Ova): 0.003 and 0.065 and 0.000 and 0.014
Total IgM + IgG (1 week splenocyte cultures), Avg. ([1]; Group 5, 5 µg/ml Ova): 53.22
Total IgM + IgG (1 week splenocyte cultures), individual mice m1-m4 ([1]; Group 5, 5 µg/ml Ova): 64.20 and 31.21 and 67.94 and 49.53
IL-4 Assays, pg/ml IL-4, Avg. of Group ([1]; Group 5, 50 µg/ml Ova): 5.61 pg/mL
IL-4 Assays, pg/ml IL-4, individual mice m1-m4 ([1]; Group 5, 50 µg/ml Ova): 7.02 pg/mL and 6.10 pg/mL and 4.74 pg/mL and 4.59 pg/mL
Total IgE (1 week splenocyte cultures) ([1]; Group 5, 50 µg/ml Ova): 0.021 ng/mL
Total IgE (1 week splenocyte cultures), Avg. ([1]; Group 5, 50 µg/ml Ova): 0.005
Total IgE (1 week splenocyte cultures), individual mice m1-m4 ([1]; Group 5, 50 µg/ml Ova): 0.000 (2×) and 0.020 and 0.001
Total IgM + IgG (1 week splenocyte cultures), Avg. ([1]; Group 5, 50 µg/ml Ova): 111.41
Total IgM + IgG (1 week splenocyte cultures), individual mice m1-m4 ([1]; Group 5, 50 µg/ml Ova): 86.16 and 80.04 and 189.70 and 89.74
ng/ml IgE (4X avg.) ([1]; Group 5): 4.406 ng/mL
inflammatory infiltrates in the lung, histology (in words) ([1]; first study, high dose): minimal to no inflammatory infiltrates
reduction in IL-4 ([1]; second study, dose-dependent): 85%
reduction in macrophages ([1]; second study, dose-dependent): 74%
reduction in total cells in the lung ([1]; second study, dose-dependent): approximately 50%
reduction in IgE ([1]; second study, s.c. 10.3 µg-1.03 mg before OVA challenges, dose-dependent): 60%
cells in the lungs, total counts / FACS (in words) ([1]; versus PBS + OVA positive controls, study and dose as in the block): significantly lower numbers of CD3, CD4, B220, and Mac-1 cells; also recorded: significantly lower percentages of macrophages; also recorded: significantly lower numbers of macrophages, B cells, and CD4+ T cells; also recorded: no significant reduction of total cells in the lungs
IgE levels (in words) ([1]; versus PBS + OVA positive controls, study as in the block): not detectable above background; also recorded: significantly lower; also recorded: significantly reduced; also recorded: reduced levels of serum IgE
splenocyte recall response to OVA (in words) ([1]; study as in the block): reduced levels of IL-4, IgE, and total IgG and IgM
splenocyte recall response to OVA (in words) ([1]; study as in the block, listed as CRD-Leu4Ile11Cys13peptide 3(3-12)[MCP-1]): significantly less IL-4
degradation by acid hydrolysis [2]: < 10%
agonist activity (in words) (THP-1 cells): No agonist activity was detected
SDF-1 induced calcium flux (in words) [3]: did block
